From US11564920B2, “5-heteroaryl-1H-pyrazol-3-amine derivative” (Sumitomo Pharma Co., Ltd., priority 2020, dated 2023)

Key:
CYP3A4 = CYP3A4 (Homo sapiens (Human), UniProt P08684); assay: CYP3A4 MBI and enzyme inactivation clearance evaluation; assay type: in vitro ADME; details: human liver microsome
Protocol: The effect and mode of inhibition of the test compound on CYP3A4 were evaluated using a human liver microsome as an enzyme source and midazolam or testosterone as a substrate. […] The IC50 value was calculated from a concentration plot.

[1] = tested on: Human bone marrow CD34 positive hematopoietic stem cells; assay: Human bone marrow cell colony formation test (hemotoxicological evaluation test); assay type: cell-based; details: 100 nM; for Colony count (/well), mean: 48 hours, then about 2 weeks culture
Protocol: Human bone marrow CD34 positive hematopoietic stem cells were obtained from Lonza K. K. The frozen cells were thawed in a medium prepared by mixing a Methocult Express medium and a 10% fetal bovine serum with 1% penicillin/streptomycin containing RPMI 1640 medium at 9:1. 5000 cells were seeded per well in a 6 well plate and cultured overnight at […] in the presence of 5% CO2. The evaluated compound was added so that the final concentration of DMSO would be 0.1% and 100 nM, and the cells were cultured for 48 hours. The cells were retrieved and washed with PBS. ⅙ of the amount of cells was seeded in a 12 well plate and cultured for about. 2 weeks at 37° C. in the presence of 5% CO2. After completion of culture, the number of colonies formed was calculated using Thiazolyl blue tetrazolium bromide (MTT).

[2] = tested on: Human bone marrow CD34 positive hematopoietic stem cells; assay: Human bone marrow cell myeloid lineage differentiation induction test; assay type: cell-based; details: 3 nM
Protocol: Human bone marrow CD34 positive hematopoietic stem cells were obtained from Lonza K. K. The frozen cells were thawed in a […] fetal bovine serum containing IMDM medium and suspended in a Complete hemaTox® Myeloid Medium. 1000 cells were seeded per well in a 96-well plate. The evaluated compound was added so that the final concentration of DMSO would be […] and 3 nM, and the cells were cultured for 7 days at 37° C. in the presence of 5% CO2. After completion of culture, half of the amount of cell suspension was retrieved from each well. The luminescence was measured using CellTiter-Glo® 3D Reagent (Promega, G968B) to calculate the cell survival percentage by the following equation. Cell survival percentage (%)=(measurement value of luminescence after 7 days of evaluated compound)/(measurement value of luminescence after 7 days of control group)×100

CAMK2A = CAMK2A (Homo sapiens (Human), UniProt Q9UQM7); assay: Kinase selectivity test (HotSpot Full Panel Kinase profiling); assay type: biochemical; details: 100 nM, ATP 10 μM; read-out: Residual activity (%) CAMK2A
Protocol: (§1) Buffer: 20 mM HEPES, pH 7.5, 10 mM MgCl2, 2 mM […] (as needed), 1 mM EGTA, 0.02% Brij35, 0.02 mg/mL BSA, 0.1 mM Na3VO4, 2 mM DTT, 1% DMSO
(§2) Compound concentration: 100 nM

MARK4 = MARK4 (Homo sapiens (Human), UniProt Q96L34); assay: as above; assay type: biochemical; details: 100 nM, ATP 10 μM; read-out: Residual activity (%) MARK4 (MARKA [sic] in Table 32)
Sequence of MARK4 (Q96L34 whole entry): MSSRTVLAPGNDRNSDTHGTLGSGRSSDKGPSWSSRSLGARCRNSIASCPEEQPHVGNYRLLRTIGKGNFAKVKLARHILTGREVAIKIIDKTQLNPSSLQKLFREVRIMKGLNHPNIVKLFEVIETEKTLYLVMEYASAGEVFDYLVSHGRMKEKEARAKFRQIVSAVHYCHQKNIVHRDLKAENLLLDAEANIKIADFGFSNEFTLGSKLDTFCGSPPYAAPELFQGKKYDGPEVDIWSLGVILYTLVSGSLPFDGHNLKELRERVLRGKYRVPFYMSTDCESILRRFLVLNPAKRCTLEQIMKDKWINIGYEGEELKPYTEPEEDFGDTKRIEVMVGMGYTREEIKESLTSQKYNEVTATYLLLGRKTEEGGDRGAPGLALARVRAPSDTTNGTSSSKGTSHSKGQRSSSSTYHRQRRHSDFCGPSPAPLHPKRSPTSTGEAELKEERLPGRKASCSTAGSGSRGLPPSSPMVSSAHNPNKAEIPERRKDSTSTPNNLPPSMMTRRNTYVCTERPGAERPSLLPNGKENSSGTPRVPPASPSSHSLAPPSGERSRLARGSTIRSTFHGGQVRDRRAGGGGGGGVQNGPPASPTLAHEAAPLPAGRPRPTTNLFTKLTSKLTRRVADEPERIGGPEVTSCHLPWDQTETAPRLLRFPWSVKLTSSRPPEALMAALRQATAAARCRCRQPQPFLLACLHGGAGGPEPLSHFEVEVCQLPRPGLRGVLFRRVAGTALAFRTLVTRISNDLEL
Protocol: as §1, §2

MELK = MELK (Homo sapiens (Human), UniProt Q14680); assay: as above; assay type: biochemical; details: 100 nM, ATP 10 μM; read-out: Residual activity (%) MELK
Sequence of MELK (Q14680 whole entry): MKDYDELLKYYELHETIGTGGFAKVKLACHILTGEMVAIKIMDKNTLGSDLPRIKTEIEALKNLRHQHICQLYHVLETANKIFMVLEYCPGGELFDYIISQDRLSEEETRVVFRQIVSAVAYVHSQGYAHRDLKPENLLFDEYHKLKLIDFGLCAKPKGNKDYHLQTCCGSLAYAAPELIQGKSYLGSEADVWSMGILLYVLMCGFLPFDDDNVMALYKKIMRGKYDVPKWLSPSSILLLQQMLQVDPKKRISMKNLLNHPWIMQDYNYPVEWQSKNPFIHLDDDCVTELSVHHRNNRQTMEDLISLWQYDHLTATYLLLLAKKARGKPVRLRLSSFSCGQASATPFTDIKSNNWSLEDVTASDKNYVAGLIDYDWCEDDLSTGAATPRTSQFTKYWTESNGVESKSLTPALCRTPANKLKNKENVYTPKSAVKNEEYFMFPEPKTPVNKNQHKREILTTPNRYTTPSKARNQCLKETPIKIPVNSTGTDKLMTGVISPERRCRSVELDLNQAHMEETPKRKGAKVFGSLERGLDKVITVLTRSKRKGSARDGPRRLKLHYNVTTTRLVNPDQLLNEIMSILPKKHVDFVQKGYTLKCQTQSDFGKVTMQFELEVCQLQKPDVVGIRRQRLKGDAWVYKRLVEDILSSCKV
Protocol: as §1, §2

RET = RET (Homo sapiens (Human), UniProt P07949); assay: as above; assay type: biochemical; details: 100 nM, ATP 10 μM; read-out: Residual activity (%) RET
Sequence of RET (P07949 29-1114): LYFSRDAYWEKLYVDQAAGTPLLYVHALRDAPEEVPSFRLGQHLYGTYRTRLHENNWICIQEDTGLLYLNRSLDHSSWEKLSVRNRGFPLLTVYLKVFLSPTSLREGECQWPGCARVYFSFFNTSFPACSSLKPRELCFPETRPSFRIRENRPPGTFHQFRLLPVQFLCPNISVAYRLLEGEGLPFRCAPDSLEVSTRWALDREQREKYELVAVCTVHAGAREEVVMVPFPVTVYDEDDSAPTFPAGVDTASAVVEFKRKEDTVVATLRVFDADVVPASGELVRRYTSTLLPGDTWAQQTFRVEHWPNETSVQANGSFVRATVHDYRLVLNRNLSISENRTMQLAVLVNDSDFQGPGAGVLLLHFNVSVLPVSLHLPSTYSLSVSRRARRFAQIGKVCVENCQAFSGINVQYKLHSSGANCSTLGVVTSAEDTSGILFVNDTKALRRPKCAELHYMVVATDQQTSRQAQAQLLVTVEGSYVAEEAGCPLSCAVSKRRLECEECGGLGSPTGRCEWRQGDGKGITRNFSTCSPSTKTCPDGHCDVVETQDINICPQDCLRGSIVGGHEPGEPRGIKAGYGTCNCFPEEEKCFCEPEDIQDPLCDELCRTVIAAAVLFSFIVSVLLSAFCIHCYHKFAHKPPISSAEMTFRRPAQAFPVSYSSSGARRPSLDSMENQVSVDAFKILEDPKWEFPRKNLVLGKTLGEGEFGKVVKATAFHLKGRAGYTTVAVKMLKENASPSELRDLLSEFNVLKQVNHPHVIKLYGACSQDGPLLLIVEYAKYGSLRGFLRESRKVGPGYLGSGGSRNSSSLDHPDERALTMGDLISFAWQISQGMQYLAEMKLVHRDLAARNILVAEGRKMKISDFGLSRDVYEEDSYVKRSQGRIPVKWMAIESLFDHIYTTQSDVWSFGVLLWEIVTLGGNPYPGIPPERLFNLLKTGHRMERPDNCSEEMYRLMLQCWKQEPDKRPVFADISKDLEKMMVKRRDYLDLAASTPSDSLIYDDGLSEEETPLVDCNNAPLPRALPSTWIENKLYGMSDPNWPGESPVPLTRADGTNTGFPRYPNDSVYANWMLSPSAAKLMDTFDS
Protocol: as §1, §2

RSK1 = RSK1 (Homo sapiens (Human), UniProt Q15418); assay: as above; assay type: biochemical; details: 100 nM, ATP 10 μM; read-out: Residual activity (%) RSK1
Protocol: as §1, §2

RSK2 = RSK2 (Homo sapiens (Human), UniProt P51812); assay: as above; assay type: biochemical; details: 100 nM, ATP 10 μM; read-out: Residual activity (%) RSK2
Protocol: as §1, §2

RSK3 = RSK3 (Homo sapiens (Human), UniProt Q15349); assay: as above; assay type: biochemical; details: 100 nM, ATP 10 μM; read-out: Residual activity (%) RSK3
Protocol: as §1, §2

RSK4 = RSK4 (Homo sapiens (Human), UniProt Q9UK32); assay: as above; assay type: biochemical; details: 100 nM, ATP 10 μM; read-out: Residual activity (%) RSK4
Protocol: as §1, §2

SIK2 = SIK2 (Homo sapiens (Human), UniProt Q9H0K1); assay: as above; assay type: biochemical; details: 100 nM, ATP 10 μM; read-out: Residual activity (%) SIK2
Sequence of SIK2 (Q9H0K1 whole entry): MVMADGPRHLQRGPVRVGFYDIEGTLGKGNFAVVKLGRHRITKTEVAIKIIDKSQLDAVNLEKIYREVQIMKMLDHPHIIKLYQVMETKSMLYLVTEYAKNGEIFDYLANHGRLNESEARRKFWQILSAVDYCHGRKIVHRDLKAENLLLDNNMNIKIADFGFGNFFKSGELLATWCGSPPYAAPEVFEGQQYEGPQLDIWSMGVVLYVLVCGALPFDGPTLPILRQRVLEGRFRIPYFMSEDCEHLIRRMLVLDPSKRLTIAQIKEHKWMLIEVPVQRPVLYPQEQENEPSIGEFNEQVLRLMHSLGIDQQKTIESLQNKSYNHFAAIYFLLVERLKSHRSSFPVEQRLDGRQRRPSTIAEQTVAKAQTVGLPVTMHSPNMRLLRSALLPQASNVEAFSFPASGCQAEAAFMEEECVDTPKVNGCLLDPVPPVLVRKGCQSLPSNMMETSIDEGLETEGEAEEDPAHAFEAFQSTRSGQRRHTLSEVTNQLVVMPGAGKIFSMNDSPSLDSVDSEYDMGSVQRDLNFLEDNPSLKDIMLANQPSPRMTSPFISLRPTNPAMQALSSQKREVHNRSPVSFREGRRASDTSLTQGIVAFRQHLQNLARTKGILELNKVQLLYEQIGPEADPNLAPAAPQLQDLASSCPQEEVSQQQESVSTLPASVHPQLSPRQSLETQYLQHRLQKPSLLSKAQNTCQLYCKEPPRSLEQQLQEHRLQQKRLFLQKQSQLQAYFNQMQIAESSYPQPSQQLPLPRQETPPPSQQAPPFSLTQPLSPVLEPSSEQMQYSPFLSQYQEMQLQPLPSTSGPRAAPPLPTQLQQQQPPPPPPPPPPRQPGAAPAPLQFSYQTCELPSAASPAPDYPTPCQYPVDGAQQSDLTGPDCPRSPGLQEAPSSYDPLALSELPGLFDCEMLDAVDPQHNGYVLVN
Protocol: as §1, §2

TNIK = TNIK (Homo sapiens (Human), UniProt Q9UKE5); assay: as above; assay type: biochemical; details: 100 nM, ATP 10 μM; read-out: Residual activity (%) TNIK
Protocol: as §1, §2

TRKC = TRKC (Homo sapiens (Human), UniProt Q16288); assay: as above; assay type: biochemical; details: 100 nM, ATP 10 μM; read-out: Residual activity (%) TRKC
Sequence of TRKC (Q16288 32-839): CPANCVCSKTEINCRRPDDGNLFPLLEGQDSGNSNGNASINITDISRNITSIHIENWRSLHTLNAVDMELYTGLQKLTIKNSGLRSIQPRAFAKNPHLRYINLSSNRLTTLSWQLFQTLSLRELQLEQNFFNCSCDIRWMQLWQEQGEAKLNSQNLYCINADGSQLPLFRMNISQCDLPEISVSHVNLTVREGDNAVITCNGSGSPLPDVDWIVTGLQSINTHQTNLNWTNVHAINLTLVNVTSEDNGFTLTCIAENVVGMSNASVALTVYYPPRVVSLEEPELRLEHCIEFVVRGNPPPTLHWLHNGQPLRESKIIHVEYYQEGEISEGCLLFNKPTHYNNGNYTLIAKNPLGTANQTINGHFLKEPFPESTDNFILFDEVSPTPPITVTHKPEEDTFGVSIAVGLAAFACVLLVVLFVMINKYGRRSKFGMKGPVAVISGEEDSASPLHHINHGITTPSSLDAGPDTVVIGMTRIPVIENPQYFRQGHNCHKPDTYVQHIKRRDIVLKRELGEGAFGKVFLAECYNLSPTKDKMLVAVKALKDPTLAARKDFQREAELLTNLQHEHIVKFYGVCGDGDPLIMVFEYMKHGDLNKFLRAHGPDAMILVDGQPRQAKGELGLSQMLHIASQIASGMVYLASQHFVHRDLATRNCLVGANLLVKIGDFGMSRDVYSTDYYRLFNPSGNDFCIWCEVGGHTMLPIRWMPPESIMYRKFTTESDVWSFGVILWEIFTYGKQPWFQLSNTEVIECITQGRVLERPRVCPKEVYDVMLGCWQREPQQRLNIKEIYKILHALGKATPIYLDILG
Protocol: as §1, §2

Sequence of CYP3A4 (P08684 whole entry): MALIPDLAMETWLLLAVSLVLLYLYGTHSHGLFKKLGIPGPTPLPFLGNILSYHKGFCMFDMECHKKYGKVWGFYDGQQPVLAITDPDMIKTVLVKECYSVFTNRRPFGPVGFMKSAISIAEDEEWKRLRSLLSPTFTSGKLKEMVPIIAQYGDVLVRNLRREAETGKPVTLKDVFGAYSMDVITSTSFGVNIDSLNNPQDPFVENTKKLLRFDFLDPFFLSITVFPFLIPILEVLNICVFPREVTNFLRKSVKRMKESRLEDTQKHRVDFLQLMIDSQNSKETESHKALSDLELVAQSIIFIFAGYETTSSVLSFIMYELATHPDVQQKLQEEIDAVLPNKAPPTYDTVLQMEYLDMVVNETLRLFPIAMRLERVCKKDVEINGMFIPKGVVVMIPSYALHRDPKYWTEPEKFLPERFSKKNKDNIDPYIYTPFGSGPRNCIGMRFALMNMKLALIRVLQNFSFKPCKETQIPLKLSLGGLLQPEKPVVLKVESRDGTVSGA

| Compound | Factor of change in IC50 value (CYP3A4; by pre-incubation with NADPH, MBI action when 2-fold or greater) | inhibition of CYP3A4 based on MBI (in words) (CYP3A4) | effect on human bone marrow cell colony formation (in words) [1] | Colony count (/well), mean [1] | effect on myeloid cells induced to differentiate from human bone marrow cells (in words) [2] | remaining activity at 0.1 µM (CAMK2A) | remaining activity at 0.1 µM (MARK4) | remaining activity at 0.1 µM (MELK) | remaining activity at 0.1 µM (RET) | remaining activity at 0.1 µM (RSK1) | remaining activity at 0.1 µM (RSK2) | remaining activity at 0.1 µM (RSK3) | remaining activity at 0.1 µM (RSK4) | remaining activity at 0.1 µM (SIK2) | remaining activity at 0.1 µM (TNIK) | remaining activity at 0.1 µM (TRKC) | microsomal CLint (CYP3A4; liver microsomes, probe midazolam or testosterone) |
| --- | --- | --- | --- | --- | --- | --- | --- | --- | --- | --- | --- | --- | --- | --- | --- | --- | --- |
| COc1ccnc(OCCCN)c1-c1cc(Nc2cnc(C#N)cn2)n[nH]1 [Example 1, 5-({5-[2-(3-aminopropoxy)-4-methoxypyridin-3-yl]-1H-pyrazol-3-yl}amino)pyrazine-2-carbonitrile] | Not Detected | do not exhibit inhibition of CYP3A4 based on MBI | does not exhibit an effect of suppressing human bone marrow colony formation | 34 /well | does not exhibit an effect of suppressing myeloid cells induced to differentiate from human bone marrow cells | 13.9% | 24.1% | 17.2% | 19% | 8.51% | 4.32% | 3.91% | 9.05% | 14.1% | 17.8% | 17.4% | – |
| COc1cccc(OCCCN)c1-c1cc(Nc2cnc(C#N)cn2)n[nH]1 [Prexasertib, reference compound] | – | exhibits inhibition of CYP3A4 based on MBI | exhibits an effect of suppressing human bone marrow cell colony formation | 19 /well | exhibited an effect of suppressing myeloid cells induced to differentiate from human bone marrow cells | 2.52% | 10.2% | 11.4% | 7.12% | 2.23% | 0.98% | 1.69% | 4.78% | 2.62% | 7.76% | 12.7% | 0.019 µL/min/mg |
